Experiment in all cases: NCI tumour cell line growth inhibition, 48 h
In test [1] the test system is DLD-1.
The test system of test [2] is DMS-273.
Test [3] deals with HOP-18.
The test system of test [4] is KM-20L2.
For test [5], the system named is LXFL 529.
Test [6] relates to M19-MEL.
Test [7] deals with XF498.
Test [8] concerns DMS-114.
Test [9] concerns RXF 631.

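Each compound was tested at five concentrations against cells in 96-well plates for 48 hours. Abbreviation: GI50, concentration required for 50% inhibition of growth.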 Calls of active or inactive are those of the source. No stated cut-off is given here; in the data, active = GI50 up to about 1.1 µM and inactive = higher.

On to `Nc1nc(Cl)cc(NCCCCCCCCNc2cc(Cl)nc(N)n2)n1`, for which the GI50 in test [1] was 10.2 µM (inactive); in [2], 8.79 µM (inactive); in test [3], 27.1 µM (inactive); in [4] it was 9.48 µM (inactive); in test [5], 1.86 µM (inactive); in [6] it was 16 µM (inactive). Also, the GI50 in test [7] was 1.64 µM (inactive).
In the case of `COc1ccc2c(c1)C(=O)C1CC(=O)CCC21` (stereo unspecified), the GI50 in test [1], in [8], in test [2], in test [3], in test [4] and in [5] was > 100 µM (inactive) each time. Further, the GI50 in [6] and in [9] was > 100 µM (inactive) throughout.
With `O=C(O)c1c([N+](=O)[O-])cc(C(F)(F)F)cc1[N+](=O)[O-]`, the GI50 was > 100 µM (inactive) in test [2]; > 100 µM (inactive) in test [4]; > 100 µM (inactive) in test [5]; > 100 µM (inactive) in test [6]; > 100 µM (inactive) in test [9]; 35.2 µM (inactive) in test [7].
As for `O=C1O[C@H](c2ccccc2)[C@@H]2CC3(CCN12)OCCO3`, the GI50 in test [2], in test [4], in test [5], in [9] and in test [7] was > 100 µM (inactive) in each case.
For the compound `CC(CCCOC(c1ccccc1)(c1ccccc1)c1ccccc1)OC(=O)Nc1ccccc1` (stereo unspecified), the GI50 in test [1] is 13.7 µM (inactive); in test [8], 12.1 µM (inactive); in [2], 15.5 µM (inactive); in test [4], 5.12 µM (inactive); in test [5] it was 13.2 µM (inactive); in test [6], 14.6 µM (inactive). For the same compound, in test [7], the GI50 was 14.9 µM (inactive).
As to `CCNC(=O)COc1ccc(Cl)c(C)c1`, the GI50 in [1], in test [8], in test [2], in test [3], in test [4] and in [5] was > 100 µM (inactive) throughout. For the same compound, in test [6], the GI50 was > 100 µM (inactive).
As to `CCCCCCCCOCC(O)COC` (stereo unspecified), the GI50 in test [1], in test [8], in test [2], in test [3], in test [5] and in test [6] was > 100 µM (inactive) each time.
Consider `Cn1ncc2ccc3[nH]c4ccccc4c(=O)c3c21`, for which the GI50 was 27.5 µM (inactive) in test [1]; 35.8 µM (inactive) in [8]; 28.6 µM (inactive) in test [2]; 58.5 µM (inactive) in [3]; 33.8 µM (inactive) in [4]; 30 µM (inactive) in [5]. Also, the GI50 in test [6] was 23.2 µM (inactive); in test [9] it was 21.8 µM (inactive).
`COc1cc(C(C)c2cc3c(cc2OCCOCCOc2cc4c(cc2C(C)c2cc(OC)c(OC)c(OC)c2)OCO4)OCO3)cc(OC)c1OC` (stereo unspecified): the GI50 in test [1], in [8], in [2], in [3], in [4] and in [5] was > 10 µM (inactive) each time. Moreover, the GI50 in test [6], in test [9] and in test [7] was > 10 µM (inactive) each time.
In the case of `O=C(/C(=C/c1ccc(Cl)cc1)c1ccccc1)c1ccccc1`, the GI50 in [1] is 15.2 µM (inactive); in [8], 16.7 µM (inactive); in [3] it was 26.5 µM (inactive); in test [5], 15.9 µM (inactive); in test [7] it was 18.5 µM (inactive).
Consider `CC1(c2cccc(N)c2)C2C(=O)NC(=O)C1C(=O)NC2=O` (stereo unspecified), for which the GI50 in test [1] was 34.7 µM (inactive); in [8], 27.5 µM (inactive); in test [2], 25.5 µM (inactive); in test [4], 27.6 µM (inactive); in [5] it was 32.2 µM (inactive); in test [6] it was 37.2 µM (inactive). The figures for the GI50 in [9] and in test [7] were > 100 µM (inactive) and 21.8 µM (inactive), respectively.
On to `O=C(Cc1ccccc1)N/N=C(/c1nc2ccc([N+](=O)[O-])cc2nc1O)C(O)c1ccccc1Cl` (stereo unspecified), for which the GI50 in test [1] is > 100 µM (inactive); in test [3] it was > 100 µM (inactive); in test [5] it was 69.7 µM (inactive); in test [6], > 100 µM (inactive); in test [7], > 100 µM (inactive).
Consider `N#CC1CC2(C1)OCCS2` (stereo unspecified), for which the GI50 in [1], in test [2], in test [4] and in [5] was > 100 µM (inactive) each time.
As to `C/C(CN1C(=O)c2ccccc2C1=O)=N\NS(=O)(=O)c1cccc([N+](=O)[O-])c1`, the GI50 in test [1], in [2], in [3], in [4], in test [5] and in test [6] was > 100 µM (inactive) each time. The GI50 in test [9] and in test [7] was > 100 µM (inactive) each time.
As to `CCC1(C(=O)OC)CCc2c(OC)ccc(OC)c2C1=O` (stereo unspecified), the GI50 in test [1], in test [8], in test [2], in test [3], in test [4] and in test [5] was > 100 µM (inactive) each time. Moreover, the GI50 in [6], in test [9] and in test [7] was > 100 µM (inactive) in each case.
For `C/C(CCn1[nH]c(=O)ccc1=O)=N\NC(=O)C(N)=O`, the GI50 in [1], in test [8], in [2], in [3], in test [4] and in test [5] was > 100 µM (inactive) in each case. Further, the GI50 in test [6] and in test [7] was > 100 µM (inactive) in each case.
`Cc1nc(Nc2ccc([N+](=O)[O-])cc2)sc1C(/C=C/c1ccc(N(C)C)cc1)=N/NC(=O)c1ccccc1`: the GI50 in [1] is 55 µM (inactive); in test [8], 29 µM (inactive); in [3], 72.8 µM (inactive); in test [4], 36.3 µM (inactive); in [5] it was 29.1 µM (inactive); in test [6], 61.1 µM (inactive). The results for the GI50 in test [9] and in test [7] were 32.6 µM (inactive) and > 100 µM (inactive), respectively.
For `Cc1c(Cl)cccc1N1C(=O)C(Cl)=C(Cl)C1=O`, the GI50 in [1] is > 66.8 µM (inactive); in [8], > 100 µM (inactive); in test [2] it was > 100 µM (inactive); in test [3] it was > 100 µM (inactive); in [4], > 100 µM (inactive); in test [5] it was > 75.7 µM (inactive). The GI50 in test [6] is > 100 µM (inactive); in test [7] it was 66.7 µM (inactive).
Consider `COc1ccc(/C(C#N)=C(/N)SCc2ccccc2Cl)cc1`, for which the GI50 was 14.1 µM (inactive) in test [1]; 17.7 µM (inactive) in [8]; 19.5 µM (inactive) in [3]; 17.8 µM (inactive) in test [4]; 14.4 µM (inactive) in [5]; 16.6 µM (inactive) in [6]. Further, in test [7], the GI50 was 14.8 µM (inactive).
Turning to `COC(=O)C12C3C4C1C1C2C3C41C(=O)O` (stereo unspecified), the GI50 in [1], in test [8], in [3], in test [4], in test [5] and in test [6] was > 100 µM (inactive) each time. The GI50 in [9] and in [7] was > 100 µM (inactive) in each case.
As to `CCOC(=O)c1cn(Cc2ccccc2)c(=O)n1Cc1ccccc1`, the GI50 in [1] is > 100 µM (inactive); in test [8], 94 µM (inactive); in [2], > 100 µM (inactive); in test [3], > 100 µM (inactive); in test [4] it was > 100 µM (inactive); in [5] it was > 100 µM (inactive). In addition, the GI50 in test [6] was > 100 µM (inactive); in test [9] it was > 100 µM (inactive); in test [7], 25.8 µM (inactive).
Turning to `O=C(O)C1C2CC3CC2CC31` (stereo unspecified), the GI50 in [8], in test [2], in [5], in [9] and in [7] was > 100 µM (inactive) each time.
`CCC12CC[C@H](C#N)N3CCc4c(n(c5ccccc45)C(=O)C1)C32` (stereo partly specified): the GI50 was 18.3 µM (inactive) in test [1]; 5.14 µM (inactive) in test [2]; < 0.01 µM (active) in test [3]; 16.3 µM (inactive) in [4]; 16.6 µM (inactive) in [5]; 18.7 µM (inactive) in test [6]. Further, the GI50 in [9] was 16.4 µM (inactive); in test [7] it was 20 µM (inactive).
With `CCOC(=O)C[C@@]12CCCNC1(C)CCc1ccccc12` (stereo partly specified), the GI50 in [1] is > 100 µM (inactive); in test [8], > 100 µM (inactive); in test [2], > 100 µM (inactive); in test [3], 63.2 µM (inactive); in test [4] it was > 100 µM (inactive); in test [6] it was > 100 µM (inactive). In addition, the GI50 in [7] was > 100 µM (inactive).
Turning to `COc1cc(C=O)c(-c2cc3c(cc2C=O)OCO3)c(OC)c1OC`, the GI50 in test [1] is 88.7 µM (inactive); in test [8] it was 84.5 µM (inactive); in [2], 85.5 µM (inactive); in [3] it was > 290 µM (inactive); in [4], 69.5 µM (inactive); in [5] it was 78 µM (inactive). Also, the GI50 in test [6] was 89.1 µM (inactive); in test [9], 115 µM (inactive).
For the compound `COc1cc(C)c(CC/C(C)=C/Cc2cc(O)ccc2O)c(C)c1C` [PANICEIN A HYDROQUINONE], the GI50 in test [1], in [8], in [2], in test [3], in test [4] and in test [5] was > 25 µM (inactive) throughout. Moreover, the GI50 in test [6] and in test [7] was > 25 µM (inactive) each time.

The values above are taken from ChEMBL document CHEMBL1201862, “PubChem BioAssay data set” (2004).
